From patent publication US20260191968A1, “PROTAC DEGRADERS OF MLLT1 AND/OR MLLT3” (DARK BLUE THERAPEUTICS LTD, priority 2024, published 2026)

Molecular target: T1, MLLT1 (Homo sapiens, UniProt Q03111)
T1 construct: host or cells: MV4-11
T1 sequence (Q03111 1-559): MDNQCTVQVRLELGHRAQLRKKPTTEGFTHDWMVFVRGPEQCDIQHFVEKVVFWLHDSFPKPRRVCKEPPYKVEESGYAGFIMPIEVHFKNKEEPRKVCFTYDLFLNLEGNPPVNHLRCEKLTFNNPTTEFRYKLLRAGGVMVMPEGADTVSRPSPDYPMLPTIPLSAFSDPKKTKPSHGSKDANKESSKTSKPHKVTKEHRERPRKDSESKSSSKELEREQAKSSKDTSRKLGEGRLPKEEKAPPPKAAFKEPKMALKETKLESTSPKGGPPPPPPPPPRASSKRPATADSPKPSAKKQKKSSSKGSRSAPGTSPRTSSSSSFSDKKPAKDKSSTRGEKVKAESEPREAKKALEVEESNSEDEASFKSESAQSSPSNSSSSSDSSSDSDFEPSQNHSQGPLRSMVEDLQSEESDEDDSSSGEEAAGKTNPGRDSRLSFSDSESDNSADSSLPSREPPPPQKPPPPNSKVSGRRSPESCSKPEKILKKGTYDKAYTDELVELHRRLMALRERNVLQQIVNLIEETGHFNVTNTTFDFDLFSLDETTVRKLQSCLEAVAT
Test: MLLT1 degradation assay in MV4-11 cells (JESS chemiluminescent detection), three concentrations, 24 h
Format: cell-based
Conditions: with respect to DMSO control
How it was run: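 Read-out is % MLLT1 degradation versus DMSO, from band peak areas on a JESS chemiluminescent system. Cells (MV4-11) were exposed for 24 h at 37° C to three compound levels, 10, 100 and 1000 nM, in 0.1% DMSO.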

SMILES	MLLT1% Degradation @ 0.01 μM	MLLT1% Degradation @ 0.1 μM	MLLT1% Degradation @ 1 μM
CN1CCC[C@@H]1c1cc2cnc(NC(=O)c3ccc(N4CCC(OCC5CCN(c6cccc7c6CN(C6CCC(=O)NC6=O)C7=O)CC5)CC4)cc3)cc2[nH]1 (stereo partly drawn) [Example 146, 4-(4-((1-(2-(2,6-dioxopiperidin-3-yl)-1-oxoisoindolin-4-yl)piperidin-4-yl)methoxy)piperidin-1-yl)-N-(2-((R)-1-methylpyrrolidin-2-yl)-1H-pyrrolo[3,2-c]pyridin-6-yl)benzamide]	B (Category B: 50% ≤ B < 75% degradation)	B (Category B: 50% ≤ B < 75% degradation)	B (Category B: 50% ≤ B < 75% degradation)
CN1CCC[C@@H]1c1cc2cnc(NC(=O)c3cc(F)c(CCCC#Cc4cccc5c4CN(C4CCC(=O)NC4=O)C5=O)c(F)c3)cc2[nH]1 (stereo partly drawn) [Example 84, 4-(5-(2-(2,6-dioxopiperidin-3-yl)-1-oxoisoindolin-4-yl)pent-4-yn-1-yl)-3,5-difluoro-N-(2-((R)-1-methylpyrrolidin-2-yl)-1H-pyrrolo[3,2-c]pyridin-6-yl)benzamide]	B (Category B: 50% ≤ B < 75% degradation)	A (Category A: A ≥ 75% degradation)	A (Category A: A ≥ 75% degradation)
CCN1CCC[C@@H]1c1cc2cnc(NC(=O)c3ccc(CCCCC#Cc4cccc5c4CN(C4CCC(=O)NC4=O)C5=O)nc3)cc2[nH]1 (stereo partly drawn) [Example 74, 6-(6-(2-(2,6-dioxopiperidin-3-yl)-1-oxoisoindolin-4-yl)hex-5-yn-1-yl)-N-(2-((R)-1-ethylpyrrolidin-2-yl)-1H-pyrrolo[3,2-c]pyridin-6-yl) nicotinamide]	B (Category B: 50% ≤ B < 75% degradation)	B (Category B: 50% ≤ B < 75% degradation)	B (Category B: 50% ≤ B < 75% degradation)
COc1nc(N2CCN(CC3CCN(c4cccc5c4CN(C4CCC(=O)NC4=O)C5=O)CC3)CC2)ccc1C(=O)Nc1cc2[nH]c([C@H]3CCCN3C)cc2cn1 (stereo partly drawn) [Example 126, 6-(4-((1-(2-(2,6-dioxopiperidin-3-yl)-1-oxoisoindolin-4-yl)piperidin-4-yl)methyl)piperazin-1-yl)-2-methoxy-N-(2-((R)-1-methylpyrrolidin-2-yl)-1H-pyrrolo[3,2-c]pyridin-6-yl) nicotinamide]	C (Category C: 25% ≤ C < 50% degradation)	C (Category C: 25% ≤ C < 50% degradation)	C (Category C: 25% ≤ C < 50% degradation)
CN1CCC[C@@H]1c1cc2cnc(NC(=O)CCCCCCNc3ccc4c(c3)C(=O)N(C3CCC(=O)NC3=O)C4=O)cc2[nH]1 (stereo partly drawn) [Example 27, 7-{[2-(2,6-dioxopiperidin-3-yl)-1,3-dioxoisoindol-5-yl]amino}-N-{2-[(2R)-1-methylpyrrolidin-2-yl]-1H-pyrrolo[3,2-c]pyridin-6-yl}heptanamide]	C (Category C: 25% ≤ C < 50% degradation)	C (Category C: 25% ≤ C < 50% degradation)	B (Category B: 50% ≤ B < 75% degradation)
CN1CCC[C@@H]1c1cc2cnc(NC(=O)c3ccc(N4CCC(CN5CCN(c6cccc7c6CN(C6CCC(=O)NC6=O)C7=O)CC5)CC4)cc3)cc2[nH]1 (stereo partly drawn) [Example 92, 4-(4-((4-(2-(2,6-dioxopiperidin-3-yl)-1-oxoisoindolin-4-yl)piperazin-1-yl)methyl)piperidin-1-yl)-N-(2-((R)-1-methylpyrrolidin-2-yl)-1H-pyrrolo[3,2-c]pyridin-6-yl)benzamide]	B (Category B: 50% ≤ B < 75% degradation)	B (Category B: 50% ≤ B < 75% degradation)	B (Category B: 50% ≤ B < 75% degradation)
CN1CCC[C@@H]1c1cc2cnc(NC(=O)c3cccc(N4CCN(CC5CCN(c6ccc7c(c6)C(=O)N(C6CCC(=O)NC6=O)C7=O)CC5)CC4)c3)cc2[nH]1 (stereo partly drawn) [Example 220, 3-(4-((1-(2-(2,6-dioxopiperidin-3-yl)-1,3-dioxoisoindolin-5-yl)piperidin-4-yl)methyl)piperazin-1-yl)-N-(2-((R)-1-methylpyrrolidin-2-yl)-1H-pyrrolo[3,2-c]pyridin-6-yl)benzamide]	D (Category D: D < 25% degradation)	C (Category C: 25% ≤ C < 50% degradation)	B (Category B: 50% ≤ B < 75% degradation)
CN1CCC[C@@H]1c1cc2cnc(NC(=O)c3ccc(N4CCC(OCC5CCN(c6cccc7c6C(=O)N(C6CCC(=O)NC6=O)C7=O)CC5)CC4)nc3)cc2[nH]1 (stereo partly drawn) [Example 18, 6-(4-((1-(2-(2,6-dioxopiperidin-3-yl)-1,3-dioxoisoindolin-4-yl)piperidin-4-yl)methoxy)piperidin-1-yl)-N-(2-((R)-1-methylpyrrolidin-2-yl)-1H-pyrrolo[3,2-c]pyridin-6-yl)nicotinamide]	B (Category B: 50% ≤ B < 75% degradation)	A (Category A: A ≥ 75% degradation)	A (Category A: A ≥ 75% degradation)
CN1CCCC1c1cc2cnc(NC(=O)c3ccc(OCC#Cc4cccc5c4CN(C4CCC(=O)NC4=O)C5=O)cn3)cc2[nH]1 (stereo not drawn) [Example 50, 5-[3-[2-(2,6-dioxo-3-piperidyl)-1-oxo-isoindolin-4-yl]prop-2-ynoxy]-N-[2-(1-methylpyrrolidin-2-yl)-1H-pyrrolo[3,2-c]pyridin-6-yl]pyridine-2-carboxamide]	B (Category B: 50% ≤ B < 75% degradation)	B (Category B: 50% ≤ B < 75% degradation)	B (Category B: 50% ≤ B < 75% degradation)
CN1CCC[C@@H]1c1cc2cnc(NC(=O)c3ccc(N4CCC(OCC5CCN(c6cccc7c6C(=O)N(C6CCC(=O)NC6=O)C7=O)CC5)CC4)cc3)cc2[nH]1 (stereo partly drawn) [Example 151, 4-(4-((1-(2-(2,6-dioxopiperidin-3-yl)-1,3-dioxoisoindolin-4-yl)piperidin-4-yl)methoxy)piperidin-1-yl)-N-(2-((R)-1-methylpyrrolidin-2-yl)-1H-pyrrolo[3,2-c]pyridin-6-yl)benzamide]	C (Category C: 25% ≤ C < 50% degradation)	B (Category B: 50% ≤ B < 75% degradation)	A (Category A: A ≥ 75% degradation)
CN1CCC[C@@H]1c1cc2cnc(NC(=O)c3ccc(CCCN4CCC(c5cccc6c5CN(C5CCC(=O)NC5=O)C6=O)CC4)cc3)cc2[nH]1 (stereo partly drawn) [Example 198, 4-(3-(4-(2-(2,6-dioxopiperidin-3-yl)-1-oxoisoindolin-4-yl)piperidin-1-yl)propyl)-N-(2-((R)-1-methylpyrrolidin-2-yl)-1H-pyrrolo[3,2-c]pyridin-6-yl)benzamide]	C (Category C: 25% ≤ C < 50% degradation)	A (Category A: A ≥ 75% degradation)	A (Category A: A ≥ 75% degradation)
CN1CCC[C@@H]1c1cc2cnc(NC(=O)c3ccc(CCC#Cc4cccc5c4CN(C4CCC(=O)NC4=O)C5=O)cn3)cc2[nH]1 (stereo partly drawn) [Example 49, 5-(4-(2-(2,6-dioxopiperidin-3-yl)-1-oxoisoindolin-4-yl)but-3-yn-1-yl)-N-(2-((R)-1-methylpyrrolidin-2-yl)-1H-pyrrolo[3,2-c]pyridin-6-yl)picolinamide]	D (Category D: D < 25% degradation)	D (Category D: D < 25% degradation)	C (Category C: 25% ≤ C < 50% degradation)
CN1CCC[C@@H]1c1cc2cnc(NC(=O)c3ccc(N4CCN(CC5CCN(c6ccc7c(c6)CN(C6CCC(=O)NC6=O)C7=O)CC5)CC4)cc3)cc2[nH]1 (stereo partly drawn) [Example 222, 4-(4-((1-(2-(2,6-dioxopiperidin-3-yl)-1-oxoisoindolin-5-yl)piperidin-4-yl)methyl)piperazin-1-yl)-N-(2-((R)-1-methylpyrrolidin-2-yl)-1H-pyrrolo[3,2-c]pyridin-6-yl)benzamide]	C (Category C: 25% ≤ C < 50% degradation)	B (Category B: 50% ≤ B < 75% degradation)	B (Category B: 50% ≤ B < 75% degradation)
CN1CCC[C@@H]1c1cc2cnc(NC(=O)c3ccc(N4CCC(C#Cc5cccc6c5CN(C5CCC(=O)NC5=O)C6=O)CC4)nn3)cc2[nH]1 (stereo partly drawn) [Example 185, 6-(4-((2-(2,6-dioxopiperidin-3-yl)-1-oxoisoindolin-4-yl)ethynyl)piperidin-1-yl)-N-(2-((R)-1-methylpyrrolidin-2-yl)-1H-pyrrolo[3,2-c]pyridin-6-yl)pyridazine-3-carboxamide]	C (Category C: 25% ≤ C < 50% degradation)	B (Category B: 50% ≤ B < 75% degradation)	B (Category B: 50% ≤ B < 75% degradation)
